Source: PubChem BioAssay AID330 (DTP/NCI, 2004)
Several values for one entry are separate records, joined by “and”; a condition that tells them apart may be missing. Equal entries are not always repeated. Inconclusive results and toxic doses are left out.

Test system: P388 leukemia ip, CD2F1 mice, survival T/C
Experiment: NCI In Vivo Anticancer Drug Screen. Data for tumor model P388 Leukemia (intraperitoneal) in CD2F1 (CDF1) mice
Conditions: endpoint: median survival time, higher = longer survival
Method in brief: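 Mice carrying the transplanted tumor received test compound or vehicle. Survival was recorded in each group, and the value is the treated-group measurement divided by that of the vehicle-treated control group.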

[1] = dose: 50.0 mg/kg/injection, schedule: Q04DX002 (ip), vehicle: saline
[2] = dose: 100.0 mg/kg/injection, schedule: Q04DX002 (ip), vehicle: saline
[3] = dose: 100.0 mg/kg/injection, schedule: Q01DX009 (ip), vehicle: saline with Tween-80
[4] = dose: 200.0 mg/kg/injection, schedule: Q01DX009 (ip), vehicle: saline with Tween-80
[5] = dose: 50.0 mg/kg/injection, schedule: Q01DX005 (ip), vehicle: saline with Tween-80
[6] = dose: 100.0 mg/kg/injection, schedule: Q01DX005 (ip), vehicle: saline with Tween-80
[7] = dose: 200.0 mg/kg/injection, schedule: Q01DX005 (ip), vehicle: saline with Tween-80
[8] = dose: 100.0 mg/kg/injection, schedule: Q04DX003 (ip), vehicle: saline with Tween-80
[9] = dose: 200.0 mg/kg/injection, schedule: Q04DX003 (ip), vehicle: saline with Tween-80

Question: Which results are given for OCC1CSCN1 (centres undefined)?
Answer: T/C [1]: 93 % of control; T/C [2]: 99 % of control and 101 % of control; T/C (dose: 200.0 mg/kg/injection, schedule: Q04DX002 (ip), vehicle: saline): 101 % of control and 120 % of control; T/C (dose: 400.0 mg/kg/injection, schedule: Q04DX002 (ip), vehicle: saline): 101 % of control and 104 % of control

Question: What does the source list for CCCCCCCCCCS(=O)CC(CO)NC(=O)/C=C/c1c(C)[nH]c(=O)[nH]c1=O (centres undefined)?
Answer: T/C (dose: 0.78 mg/kg/injection, schedule: Q01DX009 (ip), vehicle: other): 107 % of control and 116 % of control; T/C (dose: 1.56 mg/kg/injection, schedule: Q01DX009 (ip), vehicle: other): 115 % of control; T/C (dose: 6.25 mg/kg/injection, schedule: Q01DX009 (ip), vehicle: other): 153 % of control

Question: How did the T/C (dose: 100.0 mg/kg/injection, schedule: Q04DX002 (ip), vehicle: saline with Tween-80) turn out when C=C1C(=O)O[C@@H]2C3=C(C)C(=O)C=C[C@]3(C)CC[C@@H]12 was run?
Answer: 109 % of control

Question: What does the source list for Cn1c(Cl)c(/C=N\Nc2cccc([N+](=O)[O-])c2)c2ccccc21?
Answer: T/C (dose: 50.0 mg/kg/injection, schedule: Q01DX001 (ip), vehicle: Klucel (hydroxypropylcellulose) (HPC)): 92 % of control; T/C (dose: 100.0 mg/kg/injection, schedule: Q01DX001 (ip), vehicle: Klucel (hydroxypropylcellulose) (HPC)): 90 % of control; T/C (dose: 200.0 mg/kg/injection, schedule: Q01DX001 (ip), vehicle: Klucel (hydroxypropylcellulose) (HPC)): 92 % of control

Question: With O=C(O)c1ccc(CCCBr)cc1 as the compound, how does the T/C [3] read?
Answer: 105 % of control

Question: What about the T/C [4] of the same compound?
Answer: 100 % of control

Question: What about the T/C (dose: 400.0 mg/kg/injection, schedule: Q01DX009 (ip), vehicle: saline with Tween-80) of the same compound?
Answer: 97 % of control

Question: How did the T/C (dose: 0.75 mg/kg/injection, schedule: Q01DX005 (ip), vehicle: Klucel (hydroxypropylcellulose) (HPC)) turn out when CC(C)=CCCC1(C)OC2(C)CCC1CC2 (centres undefined) was run?
Answer: 95 % of control

Question: And the T/C (dose: 1.5 mg/kg/injection, schedule: Q01DX005 (ip), vehicle: Klucel (hydroxypropylcellulose) (HPC))?
Answer: 95 % of control

Question: And the T/C (dose: 3.0 mg/kg/injection, schedule: Q01DX005 (ip), vehicle: Klucel (hydroxypropylcellulose) (HPC))?
Answer: 99 % of control

Question: And the T/C (dose: 6.0 mg/kg/injection, schedule: Q01DX005 (ip), vehicle: Klucel (hydroxypropylcellulose) (HPC))?
Answer: 96 % of control

Question: For CC(=O)C1(C)CCOC1=O (centres undefined), which T/C [5] is on record?
Answer: 100 % of control

Question: What about the T/C [6] of the same compound?
Answer: 100 % of control

Question: What about the T/C [7] of the same compound?
Answer: 109 % of control

Question: How did the T/C (dose: 50.0 mg/kg/injection, schedule: Q01DX009 (ip), vehicle: saline with Tween-80) turn out when O=C1c2ccccc2CC2CCCCC12 (centres undefined) was run?
Answer: 103 % of control

Question: And the T/C [3]?
Answer: 102 % of control

Question: What about the T/C [4] of the same compound?
Answer: 108 % of control

Question: What does the source list for CN(C)c1ccc(C(Cl)[O][Sn]([CH3])([CH3])[Cl])cc1 (centres undefined)?
Answer: T/C (dose: 12.5 mg/kg/injection, schedule: Q04DX002 (ip), vehicle: saline with Tween-80): 106 % of control and 116 % of control; T/C (dose: 12.5 mg/kg/injection, schedule: Q04DX002 (ip), vehicle: saline): 110 % of control; T/C (dose: 25.0 mg/kg/injection, schedule: Q04DX002 (ip), vehicle: saline with Tween-80): 101 % of control and 106 % of control; T/C (dose: 25.0 mg/kg/injection, schedule: Q04DX002 (ip), vehicle: saline): 115 % of control; T/C (dose: 50.0 mg/kg/injection, schedule: Q04DX002 (ip), vehicle: saline with Tween-80): 116 % of control and 120 % of control; T/C [1]: 100 % of control; T/C [2]: 98 % of control

Question: N#CC1OC1c1ccc[n+]([O-])c1 (centres undefined) was tested. Which T/C (dose: 1.56 mg/kg/injection, schedule: Q01DX005 (ip), vehicle: saline) did it give?
Answer: 94 % of control

Question: And the T/C (dose: 3.12 mg/kg/injection, schedule: Q01DX005 (ip), vehicle: saline)?
Answer: 105 % of control

Question: And the T/C (dose: 6.25 mg/kg/injection, schedule: Q01DX005 (ip), vehicle: saline)?
Answer: 100 % of control

Question: What about the T/C (dose: 12.5 mg/kg/injection, schedule: Q01DX005 (ip), vehicle: saline) of the same compound?
Answer: 101 % of control

Question: Which T/C [5] does the source give for CC1=C/C(=N/OS(=O)(=O)c2ccc(C)cc2)CC(C)(C)C1 here?
Answer: 101 % of control

Question: What about the T/C [6] of the same compound?
Answer: 92 % of control

Question: And the T/C [7]?
Answer: 117 % of control

Question: CCCCCCC(C/C=C\CCCCCCCC(=O)OC)OC(C)=O (centres undefined) was tested. Which T/C [8] did it give?
Answer: 95 % of control

Question: What about the T/C [9] of the same compound?
Answer: 100 % of control

Question: What about the T/C (dose: 400.0 mg/kg/injection, schedule: Q04DX003 (ip), vehicle: saline with Tween-80) of the same compound?
Answer: 104 % of control

Question: Which T/C (dose: 50.0 mg/kg/injection, schedule: Q04DX003 (ip), vehicle: saline with Tween-80) does the source give for O=C(O)/C=C/C(=O)Nc1ccc(N=Nc2ccccc2)cc1 here?
Answer: 104 % of control

Question: And the T/C [8]?
Answer: 100 % of control

Question: And the T/C [9]?
Answer: 90 % of control
